Data from PMC8658928, “Isolation of N-Ethyl-2-pyrrolidinone-Substituted Flavanols from White Tea Using Centrifugal Countercurrent Chromatography Off-Line ESI-MS Profiling and Semi-Preparative Liquid Chromatography” (Molecules, 2021).

Target: α-glucosidase
Experiment: pNPG hydrolysis assay, absorbance at […] nm, pH […]
Assay type: biochemical

SMILES | IC50
O=C(O[C@@H]1Cc2c(O)cc(O)cc2O[C@@H]1c1cc(O)c(O)c(O)c1)c1cc(O)c(O)c(O)c1 [EGCG] | 129 µM
CCN1C(=O)CC[C@@H]1c1c(O)cc(O)c2c1O[C@H](c1cc(O)c(O)c(O)c1)[C@H](OC(=O)c1cc(O)c(O)c(O)c1)C2 [R-EGCG-cThea] | 70.3 µM
CCN1C(=O)CC[C@H]1c1c(O)cc(O)c2c1O[C@H](c1cc(O)c(O)c(O)c1)[C@H](OC(=O)c1cc(O)c(O)c(O)c1)C2 [S-EGCG-cThea] | 162 µM
